pIC50: −log10 of the molar value. Read-outs that look alike come from different tables or passages of the source.

The subject of one data set is Leishmania donovani. Kind of data set: Antileishmanial assay (PicoGreen). It is filed as cell-based. The settings on record: read-out: Leishmania donovani IC50. As for the experimental part: The anti-leishmania activity was evaluated following the protocol described by Calderon et al.[39], using the fluorescent DNA intercalator PicoGreen (Invitrogen, USA). The species responsible for visceral leishmaniasis, L. donovani, was used for the assays.

The next data set relates to Plasmodium falciparum. The data set can be described thus: Antiplasmodial assay (PicoGreen growth inhibition in infected human erythrocytes). It is filed as cell-based. Conditions: read-out: Plasmodium falciparum IC50. As to the method: Activity against the causative agent of malaria was performed by culturing human erythrocytes and infecting them with P. falciparum, as described by Trager and Jensen[36]. Briefly, the W2 (Chloroquine resistant) and 3D7 (Chloroquine sensitive) strains of P. falciparum were cultured in RPMI 1640 medium (Sigma-Aldrich, USA) supplemented with 10% human serum (from O+ blood) at a hematocrit of 2% erythrocytes (O+) at 37 °C in a gas mixture of 5% CO2, 5% O2, and 90% N2. Parasites were synchronized by a temperature cycling technique as described by Almanza et al.[37]

Data set [1] in a line: Cytotoxicity SRB assay, A-549. The settings on record: human. As to the method: (§1) All of the compounds were also evaluated for their cytotoxic properties against six human cancer cell lines (lung carcinoma epithelian (A549), colon carcinoma (HCT-116), pancreatic carcinoma (BXPC-3), breast cancer (MCF-7), cervical epithelium (HeLa), and erythroleukemic (K562)) and a human umbilical vein endothelial cell (HUVEC) line (Table 2).
(§2) The cytotoxicity against HCT-116, BXPC-3, HeLa, MCF-7, A-549, and HUVEC cell lines was evaluated using the SRB method. The cytotoxicity against K562 and Vero cell lines was evaluated using the MTT method. Adriamycin was used as a positive control. All cells were cultivated in T-75 flasks containing 10% Fetal Bovine Serum (FBS), Dulbeco’s Modified Eagle Medium (DMEM) with 2 mM L-glutamine, and 1% penicillin-streptomycin at 37 °C in a humidified atmosphere with 5% CO2. For SRB assay, cells in their log phase of growth were seeded into 96 well micro plates (4 × 10^4 cells per well) and followed by treating with test samples at 10 μM or DMSO. After incubation at 37 °C for 72 h, the cells were fixed with the cold 20% (w/v) TCA for 2 h and stained with Sulforhodamine B (SRB) dye for 0.5 h. The protein-bound dye is dissolved in Tris base solution for OD determination at 540 nm on an ELISA Plate Reader. For MTT assay, cells (5 × 10^3 cells per well) were plated in 96 well micro plates. After cell attachment overnight, new medium containing test compounds or DMSO was added. The plate was incubated for 48 h at 37 °C and incubated with 3-(4,5-dimethylthiazol-2-yl)-2,5-diphenyltetrazolium bromide (MTT) for additional 2–4 hours. The assay plate was then read at 490 nm on an ELISA Plate Reader. The data were obtained from experiments carried out in triplicate.

Data set [2] is described as follows: Cytotoxicity SRB assay, HUVEC. Conditions: human. As to the method: as §1, §2
For orientation: Sulforhodamine B stains cellular protein and so reports cell mass.

Data set [3] is described as follows: Cytotoxicity SRB assay, HCT-116. The settings on record: human. As for the experimental part: as §1, §2
Data set [4] in a line: Cytotoxicity against the panel of six human cancer cell lines and HUVEC. As to the method: as §1, §2
Data set [5] is described as follows: Cytotoxicity SRB assay, HeLa. The settings on record: human. As for the experimental part:
as §1, §2

The nature of data set [6]: Toxicity against Vero cells (MTT). Conditions: African green monkey, MTT, 48 h. It is filed as cell-based, African green monkey. As to the method:
(§3) It should be emphasized that toxicity is a major concern of drug discovery and development. The above active compounds were evaluated for in vitro toxicity against a mammalian kidney cell line (Vero). The selectivity index (SI) was used as the evaluation parameter of drug potential of the test samples by comparing the toxicity on the Vero cell line (CC50) and the selective inhibitory effect on P. falciparum, L. donovani or T. cruzi (IC50) calculated here as CC50/IC50.
(§4) Adriamycin was used as a positive control.

A further data set concerns Trypanosoma cruzi. Kind of data set: Antitrypanosomal assay (beta-galactosidase reporter, intracellular amastigotes in Vero cells). Also: key: I: Inactive. The settings on record: Tulahuen clone C4, intracellular amastigotes in Vero cells, 120 h. It is filed as cell-based. As to the method:
Briefly, the expression of the reporter gene for beta-galactosidase (β-Gal) in the Tulahuen clone C4 of T. cruzi is assessed by colorimetry at 570 nm, which correlates with the parasite growth. Assays were performed on the intracellular amastigote form of the parasite infecting African green monkey kidney (Vero) cells, incubated for 120 h at 37 °C with 5% CO2.

Data set [7] in a line: Cytotoxicity MTT assay, K562. The settings on record: human. As for the experimental part:
as §1, §2

Data set [8] in a line: Cytotoxicity SRB assay, MCF-7. The settings on record: human. As to the method:
as §1, §2

Data set [9] is described as follows: Cytotoxicity SRB assay, BXPC-3. The settings on record: human. As to the method:
as §1, §2

The subject of a further data set is Vero cells. The data set can be described thus: Toxicity against Vero cells (MTT). It is filed as cell-based, African green monkey. The settings on record: in vitro toxicity against mammalian kidney cell line (Vero). As for the experimental part: as §3, §4
Where [10] appears, read: Erythrocyte, in vitro, W2 and 3D7 strains cultured, strain of the values not stated.
Where [11] appears, read: HUVEC (umbilical vein endothelial cells).
Setting [12] is: Vero cells (mammalian kidney cell line).
Setting [13] is: BXPC-3 pancreatic carcinoma cells.

As for `COc1cc(O)c2c(c1)/C=C/C[C@H](OC(C)=O)[C@H](OC(C)=O)C(=O)/C=C\C[C@H](C)OC2=O` [Compound 27], the figures for the pIC50 (in the data set with Leishmania donovani (in vitro); in the data set with Plasmodium falciparum (setting [10]); in data set [4]) were 5.50, below 4.51 and above 5.00, respectively. Also, the IC50 at 72 h in data set [1] (A-549 lung carcinoma cells) was determined as 7.3 µM; in [2] (setting [11]) it was 5.9 µM; in data set [3] (HCT-116 colon carcinoma cells), 2.83 µM; in data set [5] (HeLa cervical epithelium cells), 3.85 µM. The cytotoxic concentration (CC50) at 48 h in data set [6] (setting [12]) is below 1 µM.

`COc1cc2c(c(OC(C)=O)c1)C(=O)O[C@@H](C)C/C=C/[C@@H]1OC(C)(C)O[C@H]1[C@@H](OC(C)=O)C/C=C/2` [Compound 11]: the pIC50 was 5.04 in the data set with Leishmania donovani (in vitro); 5.74 with Plasmodium falciparum (setting [10]); 4.92 in the data set with Trypanosoma cruzi (Trypanosoma cruzi, read-out: Trypanosoma cruzi IC50). Besides, in data set [7] (K562 erythroleukemic cells), the IC50 at 48 h is above 10 µM. Also, the half-maximal inhibitory concentration (IC50) at 72 h in [1] (A-549 lung carcinoma cells), in [8] (MCF-7 breast cancer cells), in [2] (setting [11]), in data set [3] (HCT-116 colon carcinoma cells), in [5] (HeLa cervical epithelium cells) and in [9] (setting [13]) was above 10 µM throughout. Moreover, the CC50 at 48 h in data set [6] (setting [12]) is 339 µM. Further, in the data set with Vero cells, the “Toxicity (in words)” value is “non-toxic”.

As to `COc1cc(O)c2c(c1)/C=C/C[C@H]1OC(C)(C)O[C@H]1C(=O)/C=C/C[C@H](C)OC2=O` [Compound 25], the pIC50 with Leishmania donovani (in vitro) is below 4.80; with Plasmodium falciparum (setting [10]) it was below 4.51. In the data set on Trypanosoma cruzi, the “Trypanosoma cruzi IC50” value was “I”. In data set [7], this molecule showed an IC50 at 48 h above 10 µM. Besides, the IC50 at 72 h in data set [1], in data set [8], in data set [2], in data set [3], in data set [5] and in data set [9] was above 10 µM each time.

Consider `COc1cc(O)c2c(c1Cl)/C=C/C[C@H](O)[C@@H]1OC(C)(C)O[C@H]1CCC[C@H](C)OC2=O` [Compound 18], for which the pIC50 with Leishmania donovani was below 4.80; in the data set with Plasmodium falciparum (3D7, Erythrocyte), below 4.51. In addition, in the data set with Trypanosoma cruzi, the “Trypanosoma cruzi IC50” value is “I”. The molecule further displayed an IC50 at 48 h in [7] above 10 µM. For the same molecule, the IC50 at 72 h in [1], in data set [8], in data set [3], in data set [5] and in data set [9] was above 10 µM in each case. Further, the CC50 at 48 h in data set [6] was found to be 102 µM.

Consider `COc1cc2c(c(OC(C)=O)c1)C(=O)O[C@@H](C)C/C=C/[C@H](OC(C)=O)[C@@H](OC(C)=O)[C@@H](OC(C)=O)C/C=C/2` [Compound 13], for which the pIC50 in the data set on Leishmania donovani (in vitro) was below 4.80; in the data set on Plasmodium falciparum (setting [10]), 5.16. Further, the “Trypanosoma cruzi IC50” value in the data set on Trypanosoma cruzi was “I”. Also, in data set [7] (K562 erythroleukemic cells), the IC50 at 48 h was above 10 µM. The IC50 at 72 h in [1] (A-549 lung carcinoma cells), in data set [8] (MCF-7 breast cancer cells), in data set [2] (setting [11]), in data set [3] (HCT-116 colon carcinoma cells), in data set [5] (HeLa cervical epithelium cells) and in data set [9] (setting [13]) was above 10 µM throughout. This molecule also registered a CC50 at 48 h in data set [6] (setting [12]) of 427 µM. Further, the “Toxicity (in words)” value in the data set on Vero cells is reported as “non-toxic”.

For the molecule `COc1cc(O)c2c(c1)/C=C/C[C@H]1OC(C)(C)O[C@@H]1C(=O)/C=C/C[C@H](C)OC2=O` [Compound 23], the pIC50 in the data set on Leishmania donovani (in vitro) was below 4.80; in the data set with Plasmodium falciparum (setting [10]), below 4.51; in data set [4], above 5.00. Moreover, the “Trypanosoma cruzi IC50” value in the data set with Trypanosoma cruzi is recorded as “I”. For the same molecule, the IC50 at 72 h was determined as 9.75 µM in [1], 7.51 µM in data set [2], 3.51 µM in data set [3] and 6.59 µM in data set [5].

For `COc1cc2c(c(OC(=O)c3ccco3)c1)C(=O)O[C@@H](C)C/C=C/[C@H](OC(=O)c1ccco1)[C@@H](OC(=O)c1ccco1)[C@@H](OC(=O)c1ccco1)C/C=C/2` [Compound 15], the pIC50 was below 4.80 with Leishmania donovani (in vitro) and 4.65 in the data set with Plasmodium falciparum (setting [10]). Further, in the data set with Trypanosoma cruzi, the “Trypanosoma cruzi IC50” value is reported as “I”. In data set [6] (setting [12]), this molecule yielded a 50% cytotoxic concentration (CC50) at 48 h of 1570 µM. The “Toxicity (in words)” value in the data set with Vero cells was “non-toxic”.

The term pIC50 denotes the negative decadic logarithm of the IC50, by convention in mol/L. In general, IC50 refers to the point on the concentration scale where inhibition reaches its midpoint. A low value points to greater potency. As a reminder, the CC50 is the concentration giving 50% cytotoxicity. Low readings indicate greater toxicity to the cells, high ones lower toxicity to the cells.

The record behind these values is publication PMC5603512, “Discovery, Semisynthesis, Antiparasitic and Cytotoxic Evaluation of 14-Membered Resorcylic Acid Lactones and Their Derivatives” (Scientific Reports, 2017).
